Assay results: US6673791B2, “Non-nucleoside reverse transcriptase inhibitors” (Boehringer Ingelheim (Canada) Ltd., priority 2001, dated 2004)

tested on: V106A (HIV-1 mutant strain); experiment: EC50 assay, V106A strain; type: cell-based; conditions: Human immunodeficiency virus 1, read-out: EC50 V106A (nM)
Text: (§1) Reverse TranscriptASE (RT) Assays
(§2) The assays are as described in WO 01/96338A1, the contents of which are hereby incorporated herein. The results are listed in Tables 8 as IC50(nM) and EC50(nM).

Compound	EC50
CCN1c2ncc(CCOc3ccc(C(=O)O)c4c3CCCC4)cc2C(=O)N(C)c2cccnc21 [Entry 5001]	100 to 1000 nM
CCN1c2ncc(CCOc3ccc(NS(=O)(=O)C(F)(F)F)c4ccccc34)cc2C(=O)N(C)c2ccc(F)nc21 [Entry 2002]	100 to 1000 nM
CCN1c2ncc(CCOc3ccc(C(=O)O)c4c3CCN(C(=O)OC)C4)cc2C(=O)N(C)c2cccnc21 [Entry 7002]	100 to 1000 nM

tested on: WT RT (HIV-1 wild type strain); experiment: EC50 assay, WT RT strain; type: cell-based; conditions: Human immunodeficiency virus 1, read-out: EC50 WT RT (nM)
Text: as §1, §2

Compound	EC50
CCN1c2ncc(CCOc3ccc(C(=O)O)c4c3CCCC4)cc2C(=O)N(C)c2cccnc21 [Entry 5001]	< 100 nM
CCN1c2ncc(CCOc3ccc(NS(=O)(=O)C(F)(F)F)c4ccccc34)cc2C(=O)N(C)c2ccc(F)nc21 [Entry 2002]	< 100 nM
CCN1c2ncc(CCOc3ccc(/C=C/C(=O)O)c4ccccc34)cc2C(=O)N(C)c2ccc(F)nc21 [Entry 1032]	< 100 nM
CCN1c2ncc(CCOc3ccc(C(=O)O)c4c3CCN(S(=O)(=O)N(C)C)C4)cc2C(=O)N(C)c2cccnc21 [Entry 7008]	< 100 nM
CCN1c2ncc(CCOc3ccc(C(=O)O)c4c3CCN(C(=O)OC)C4)cc2C(=O)N(C)c2cccnc21 [Entry 7002]	< 100 nM
CCN1c2ncc(CCOc3ccc4cc(C(=O)NN)ccc4c3)cc2C(=O)N(C)c2cccnc21 [Entry 3002]	< 100 nM
CCN1c2ncc(CCOc3ccc(/C=C(\C)C(=O)O)c4ccccc34)cc2C(=O)N(C)c2ccc(F)nc21 [Entry 1037]	< 100 nM
CCN1c2ncc(CCOc3ccc(CC(=O)O)c4ccccc34)cc2C(=O)N(C)c2ccc(Cl)nc21 [Entry 1010]	< 100 nM

tested on: K103N/Y181C (HIV-1 double mutant strain); experiment: EC50 assay, K103N/Y181C strain; type: cell-based; conditions: Human immunodeficiency virus 1, read-out: EC50 K103N/Y181C (nM), K103N/Y181C double mutant
Text: as §1, §2

Compound	EC50
CCN1c2ncc(CCOc3ccc(C(=O)O)c4c3CCCC4)cc2C(=O)N(C)c2cccnc21 [Entry 5001]	< 100 nM
CCN1c2ncc(CCOc3ccc(NS(=O)(=O)C(F)(F)F)c4ccccc34)cc2C(=O)N(C)c2ccc(F)nc21 [Entry 2002]	< 100 nM
CCN1c2ncc(CCOc3ccc(/C=C/C(=O)O)c4ccccc34)cc2C(=O)N(C)c2ccc(F)nc21 [Entry 1032]	< 100 nM
CCN1c2ncc(CCOc3ccc(C(=O)O)c4c3CCN(S(=O)(=O)N(C)C)C4)cc2C(=O)N(C)c2cccnc21 [Entry 7008]	< 100 nM
CCN1c2ncc(CCOc3ccc(C(=O)O)c4c3CCN(C(=O)OC)C4)cc2C(=O)N(C)c2cccnc21 [Entry 7002]	< 100 nM
CCN1c2ncc(CCOc3ccc4cc(C(=O)NN)ccc4c3)cc2C(=O)N(C)c2cccnc21 [Entry 3002]	100 to 1000 nM
CCN1c2ncc(CCOc3ccc(/C=C(\C)C(=O)O)c4ccccc34)cc2C(=O)N(C)c2ccc(F)nc21 [Entry 1037]	< 100 nM
CCN1c2ncc(CCOc3ccc(CC(=O)O)c4ccccc34)cc2C(=O)N(C)c2ccc(Cl)nc21 [Entry 1010]	< 100 nM

biological target: T1, K103N/Y181C double mutant RT (HIV-1 RT) (Human immunodeficiency virus type 1 group M subtype B, UniProt P03366, K702N/Y780C); experiment: biochemical; conditions: not given
T1 construct: mutations that occur in the reverse transcriptase segment of the pol gene

Compound	IC50
CCN1c2ncc(CCOc3ccc(C(=O)O)c4c3CCCC4)cc2C(=O)N(C)c2cccnc21 [Entry 5001]	100 to 1000 nM
CCN1c2ncc(CCOc3ccc(NS(=O)(=O)C(F)(F)F)c4ccccc34)cc2C(=O)N(C)c2ccc(F)nc21 [Entry 2002]	100 to 1000 nM
CCN1c2ncc(CCOc3ccc(/C=C/C(=O)O)c4ccccc34)cc2C(=O)N(C)c2ccc(F)nc21 [Entry 1032]	100 to 1000 nM
CCN1c2ncc(CCOc3ccc(C(=O)O)c4c3CCN(S(=O)(=O)N(C)C)C4)cc2C(=O)N(C)c2cccnc21 [Entry 7008]	< 100 nM
CCN1c2ncc(CCOc3ccc(C(=O)O)c4c3CCN(C(=O)OC)C4)cc2C(=O)N(C)c2cccnc21 [Entry 7002]	100 to 1000 nM
CCN1c2ncc(CCOc3ccc4cc(C(=O)NN)ccc4c3)cc2C(=O)N(C)c2cccnc21 [Entry 3002]	100 to 1000 nM
CCN1c2ncc(CCOc3ccc(/C=C(\C)C(=O)O)c4ccccc34)cc2C(=O)N(C)c2ccc(F)nc21 [Entry 1037]	100 to 1000 nM
CCN1c2ncc(CCOc3ccc(CC(=O)O)c4ccccc34)cc2C(=O)N(C)c2ccc(Cl)nc21 [Entry 1010]	100 to 1000 nM

biological target: T2, Y188L mutant RT (HIV-1 RT) (Human immunodeficiency virus type 1 group M subtype B, UniProt P03366, Y787L); experiment: biochemical; conditions: IC50 Y188L (nM)
T2 construct: mutations that occur in the reverse transcriptase segment of the pol gene

Compound	IC50
CCN1c2ncc(CCOc3ccc(C(=O)O)c4c3CCCC4)cc2C(=O)N(C)c2cccnc21 [Entry 5001]	> 1000 nM
CCN1c2ncc(CCOc3ccc(NS(=O)(=O)C(F)(F)F)c4ccccc34)cc2C(=O)N(C)c2ccc(F)nc21 [Entry 2002]	> 1000 nM
CCN1c2ncc(CCOc3ccc(/C=C/C(=O)O)c4ccccc34)cc2C(=O)N(C)c2ccc(F)nc21 [Entry 1032]	100 to 1000 nM
CCN1c2ncc(CCOc3ccc(C(=O)O)c4c3CCN(S(=O)(=O)N(C)C)C4)cc2C(=O)N(C)c2cccnc21 [Entry 7008]	100 to 1000 nM
CCN1c2ncc(CCOc3ccc(C(=O)O)c4c3CCN(C(=O)OC)C4)cc2C(=O)N(C)c2cccnc21 [Entry 7002]	100 to 1000 nM
CCN1c2ncc(CCOc3ccc4cc(C(=O)NN)ccc4c3)cc2C(=O)N(C)c2cccnc21 [Entry 3002]	> 1000 nM
CCN1c2ncc(CCOc3ccc(/C=C(\C)C(=O)O)c4ccccc34)cc2C(=O)N(C)c2ccc(F)nc21 [Entry 1037]	> 1000 nM
CCN1c2ncc(CCOc3ccc(CC(=O)O)c4ccccc34)cc2C(=O)N(C)c2ccc(Cl)nc21 [Entry 1010]	> 1000 nM

biological target: T3, V106A mutant RT (HIV-1 RT) (Human immunodeficiency virus type 1 group M subtype B, UniProt P03366, V705A); experiment: biochemical; conditions: IC50 V106A (nM)
T3 construct: mutations that occur in the reverse transcriptase segment of the pol gene

Compound	IC50
CCN1c2ncc(CCOc3ccc(C(=O)O)c4c3CCCC4)cc2C(=O)N(C)c2cccnc21 [Entry 5001]	> 1000 nM
CCN1c2ncc(CCOc3ccc(NS(=O)(=O)C(F)(F)F)c4ccccc34)cc2C(=O)N(C)c2ccc(F)nc21 [Entry 2002]	> 1000 nM
CCN1c2ncc(CCOc3ccc(/C=C/C(=O)O)c4ccccc34)cc2C(=O)N(C)c2ccc(F)nc21 [Entry 1032]	100 to 1000 nM
CCN1c2ncc(CCOc3ccc(C(=O)O)c4c3CCN(S(=O)(=O)N(C)C)C4)cc2C(=O)N(C)c2cccnc21 [Entry 7008]	100 to 1000 nM
CCN1c2ncc(CCOc3ccc(C(=O)O)c4c3CCN(C(=O)OC)C4)cc2C(=O)N(C)c2cccnc21 [Entry 7002]	> 1000 nM
CCN1c2ncc(CCOc3ccc4cc(C(=O)NN)ccc4c3)cc2C(=O)N(C)c2cccnc21 [Entry 3002]	< 100 nM
CCN1c2ncc(CCOc3ccc(/C=C(\C)C(=O)O)c4ccccc34)cc2C(=O)N(C)c2ccc(F)nc21 [Entry 1037]	> 1000 nM
CCN1c2ncc(CCOc3ccc(CC(=O)O)c4ccccc34)cc2C(=O)N(C)c2ccc(Cl)nc21 [Entry 1010]	> 1000 nM

biological target: T4, WT RT (HIV-1 RT) (Human immunodeficiency virus type 1 group M subtype B, UniProt P03366); experiment: biochemical; conditions: not given
T4 construct: mutations that occur in the reverse transcriptase segment of the pol gene

Compound	IC50
CCN1c2ncc(CCOc3ccc(C(=O)O)c4c3CCCC4)cc2C(=O)N(C)c2cccnc21 [Entry 5001]	< 100 nM
CCN1c2ncc(CCOc3ccc(NS(=O)(=O)C(F)(F)F)c4ccccc34)cc2C(=O)N(C)c2ccc(F)nc21 [Entry 2002]	< 100 nM
CCN1c2ncc(CCOc3ccc(/C=C/C(=O)O)c4ccccc34)cc2C(=O)N(C)c2ccc(F)nc21 [Entry 1032]	< 100 nM
CCN1c2ncc(CCOc3ccc(C(=O)O)c4c3CCN(S(=O)(=O)N(C)C)C4)cc2C(=O)N(C)c2cccnc21 [Entry 7008]	< 100 nM
CCN1c2ncc(CCOc3ccc(C(=O)O)c4c3CCN(C(=O)OC)C4)cc2C(=O)N(C)c2cccnc21 [Entry 7002]	< 100 nM
CCN1c2ncc(CCOc3ccc4cc(C(=O)NN)ccc4c3)cc2C(=O)N(C)c2cccnc21 [Entry 3002]	< 100 nM
CCN1c2ncc(CCOc3ccc(/C=C(\C)C(=O)O)c4ccccc34)cc2C(=O)N(C)c2ccc(F)nc21 [Entry 1037]	< 100 nM
CCN1c2ncc(CCOc3ccc(CC(=O)O)c4ccccc34)cc2C(=O)N(C)c2ccc(Cl)nc21 [Entry 1010]	< 100 nM
